In ChEMBL document CHEMBL3880402, “Inhibitors of E1 activating enzymes” (2006):

Target: T1, NEDD8-activating enzyme E1 catalytic subunit (Homo sapiens, UniProt Q8TBC4)
T1 sequence (Q8TBC4 whole entry): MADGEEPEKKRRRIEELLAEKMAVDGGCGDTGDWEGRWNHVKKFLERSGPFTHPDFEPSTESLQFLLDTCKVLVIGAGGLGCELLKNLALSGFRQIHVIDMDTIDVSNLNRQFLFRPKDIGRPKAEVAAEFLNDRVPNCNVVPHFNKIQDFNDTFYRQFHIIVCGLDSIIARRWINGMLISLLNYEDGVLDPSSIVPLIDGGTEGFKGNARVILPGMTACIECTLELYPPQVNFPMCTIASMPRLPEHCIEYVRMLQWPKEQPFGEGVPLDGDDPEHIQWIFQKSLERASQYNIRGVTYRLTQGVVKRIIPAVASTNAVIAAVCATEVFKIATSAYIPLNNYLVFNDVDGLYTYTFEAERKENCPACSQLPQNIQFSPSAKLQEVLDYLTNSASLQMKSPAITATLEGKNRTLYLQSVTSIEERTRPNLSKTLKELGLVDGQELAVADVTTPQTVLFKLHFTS
Assay: Inhibition of recombinant human untagged NAEalpha/N-terminal His-tagged NAEbeta expressed in Bac-to-Bac expression system using FLAG-tagged NEDD8 as substrate after 90 mins in presence of GST-tagged Ubc12 by HTRF assay

Structure (SMILES) | IC50 [µM]
NS(=O)(=O)OC[C@H]1O[C@@H](n2cnc3c(N[C@H]4CCc5ccccc54)nncc32)[C@H](O)[C@@H]1O | 0.1 to 1
C[C@@]1(O)[C@H](O)[C@@H](COS(N)(=O)=O)O[C@H]1n1cnc2c(N[C@H]3CCc4ccccc43)ncnc21 | 0.1 to 1
NS(=O)(=O)OC[C@H]1O[C@@H](n2cnc3c(CC4Cc5ccccc5C4)ncnc32)[C@H](O)[C@@H]1O | 0.1 to 1
NS(=O)(=O)NC[C@H]1O[C@@H](n2cnc3c(NC[C@H](O)c4cccc(O)c4)ncnc32)[C@H](O)[C@@H]1O | 0.1 to 1
NS(=O)(=O)OC[C@H]1O[C@@H](n2cnc3c(N[C@H]4CCc5ccccc54)nccc32)[C@H](O)[C@@H]1O | 0.1 to 1
NS(=O)(=O)OC[C@H]1C[C@@H](n2cnc3c(N[C@H]4CCc5ccccc54)ncnc32)C[C@@H]1O | 0.1 to 1
NS(=O)(=O)OC[C@H]1O[C@@H](n2cnc3c(-c4ccco4)ncnc32)[C@H](O)[C@@H]1O | 0.1 to 1
NS(=O)(=O)OC[C@H]1O[C@@H](n2cnc3c(-c4ccccc4)ncnc32)[C@H](O)[C@@H]1O | 0.1 to 1
NS(=O)(=O)OC[C@H]1O[C@@H](n2cnc3c(CN4C(=O)c5ccccc5C4=O)ncnc32)[C@H](O)[C@@H]1O | 0.1 to 1
NS(=O)(=O)OC[C@H]1O[C@@H](n2cnc3c(NCc4ccc5c(c4)OCO5)ncnc32)[C@H](O)[C@@H]1O | 0.1 to 1
NS(=O)(=O)CC[C@H]1O[C@@H](n2cnc3c(NC(c4ccccc4)c4ccccc4)ncnc32)[C@H](O)[C@@H]1O | 0.1 to 1
NS(=O)(=O)OC[C@H]1O[C@@H](n2cnc3c(C#Cc4cccc(F)c4)ncnc32)[C@H](O)[C@@H]1O | 0.1 to 1
NS(=O)(=O)OC[C@H]1O[C@@H](n2cnc3c(CN4Cc5ccccc5C4)ncnc32)[C@H](O)[C@@H]1O | 0.1 to 1
NS(=O)(=O)OC[C@@H]1C[C@@H](O)[C@H](n2cnc3c(N[C@H]4CCc5ccccc54)ncnc32)O1 | 0.1 to 1
CCc1ncnc2c1ncn2[C@@H]1O[C@H](COS(N)(=O)=O)[C@@H](O)[C@H]1O | 0.1 to 1
CC1(C)CC(Nc2ncnc3c2ncn3[C@@H]2O[C@H](CCS(N)(=O)=O)[C@@H](O)[C@H]2O)c2ccccc21 (some centres not stated) | 0.1 to 1
NS(=O)(=O)OC[C@H]1O[C@@H](n2cnc3c(NC(=O)Nc4ccccc4)ncnc32)[C@H](O)[C@@H]1O | 0.1 to 1
NS(=O)(=O)OC[C@H]1O[C@@H](n2cnc3c(N[C@H]4CCc5ccccc54)ncnc32)[C@@H](O)[C@@H]1O | 0.1 to 1
COc1ccccc1C(=O)NCc1ncnc2c1ncn2[C@@H]1O[C@H](COS(N)(=O)=O)[C@@H](O)[C@H]1O | 0.1 to 1
NS(=O)(=O)OC[C@H]1O[C@@H](n2cnc3c(C#Cc4ccc(F)cc4)ncnc32)[C@H](O)[C@@H]1O | 0.1 to 1
NS(=O)(=O)OC[C@H]1O[C@@H](n2cnc3c(C#Cc4cccc(C(F)(F)F)c4)ncnc32)[C@H](O)[C@@H]1O | 0.1 to 1
NS(=O)(=O)OC[C@H]1O[C@@H](n2cnc3c(C#Cc4ccccc4)ncnc32)C[C@@H]1O | 0.1 to 1

Structure (SMILES) | IC50 [µM]
NS(=O)(=O)OC[C@H]1O[C@@H](n2cnc3c(C#Cc4cc(F)cc(F)c4)ncnc32)[C@H](O)[C@@H]1O | 0.1 to 1
NS(=O)(=O)OC[C@H]1O[C@@H](n2cnc3c(C#Cc4ccc(Br)cc4)ncnc32)[C@H](O)[C@@H]1O | 0.1 to 1
COc1ccc(C#Cc2ncnc3c2ncn3[C@@H]2O[C@H](COS(N)(=O)=O)[C@@H](O)[C@H]2O)cc1 | 0.1 to 1
CN(c1ncnc2c1ncn2[C@@H]1O[C@H](COS(N)(=O)=O)[C@@H](O)[C@H]1O)[C@H]1CCc2ccccc21 | 0.1 to 1
NS(=O)(=O)OC[C@H]1O[C@@H](n2cnc3c(CNC(=O)c4ccccc4)ncnc32)[C@H](O)[C@@H]1O | 0.1 to 1
Cc1noc(C)c1-c1ncnc2c1ncn2[C@@H]1O[C@H](COS(N)(=O)=O)[C@@H](O)[C@H]1O | 0.1 to 1
NS(=O)(=O)OC[C@H]1O[C@@H](n2cnc3c(C#Cc4cccc(Br)c4)ncnc32)[C@H](O)[C@@H]1O | 0.1 to 1
NS(=O)(=O)OC[C@H]1O[C@@H](n2cnc3c(N[C@H]4CCc5ccccc54)ncnc32)[C@@H](F)[C@@H]1O | 0.1 to 1
NS(=O)(=O)OC[C@H]1O[C@@H](n2cnc3c(C#Cc4ccc(Cl)cc4)ncnc32)[C@H](O)[C@@H]1O | 0.1 to 1
NS(=O)(=O)OC[C@H]1O[C@@H](n2cnc3c(NCc4ccccc4)ncnc32)C[C@@H]1O | 0.1 to 1
NS(=O)(=O)OC[C@H]1C[C@@H](n2cnc3c(CCc4ccccc4)ncnc32)[C@H](O)[C@@H]1O | 0.1 to 1
NS(=O)(=O)OC[C@H]1O[C@@H](n2ccc3c(N[C@H]4CCc5ccccc54)ncnc32)C[C@@H]1O | 0.1 to 1
NS(=O)(=O)OC[C@H]1C[C@@H](n2cnc3c(C#Cc4ccccc4)ncnc32)[C@H](O)[C@@H]1O | 0.1 to 1
CO[C@H]1[C@H](O)[C@@H](COS(N)(=O)=O)O[C@H]1n1cnc2c(N[C@H]3CCc4ccccc43)ncnc21 | 0.1 to 1
NS(=O)(=O)OC[C@H]1O[C@@H](n2cnc3c(C#CC4CC4)ncnc32)[C@H](O)[C@@H]1O | 0.1 to 1
CCCc1ncnc2c1ncn2[C@@H]1C[C@H](COS(N)(=O)=O)[C@@H](O)[C@H]1O | 0.1 to 1
NS(=O)(=O)OC[C@H]1O[C@@H](n2ccc3c(NC(=O)c4ccccc4)ncnc32)C[C@@H]1O | 0.1 to 1
NS(=O)(=O)OC[C@H]1O[C@@H](n2cnc3c(C#Cc4ccccc4F)ncnc32)[C@H](O)[C@@H]1O | 0.1 to 1
NS(=O)(=O)OC[C@H]1O[C@@H](n2cnc3c(NS(=O)(=O)c4ccccc4)ncnc32)[C@H](O)[C@@H]1O | 0.1 to 1
NS(=O)(=O)OC[C@H]1O[C@@H](n2cnc3c(C#Cc4ccccc4Cl)ncnc32)[C@H](O)[C@@H]1O | 0.1 to 1
COc1ccccc1C#Cc1ncnc2c1ncn2[C@@H]1O[C@H](COS(N)(=O)=O)[C@@H](O)[C@H]1O | 0.1 to 1
NS(=O)(=O)CC[C@H]1O[C@@H](n2cnc3c(NCc4ccc(Cl)cc4)ncnc32)[C@H](O)[C@@H]1O | 0.1 to 1

Further lines, results first:

IC50 [µM] | Structure (SMILES)
0.1 to 1 | NS(=O)(=O)OC[C@H]1O[C@@H](n2cnc3c(-c4cccc(-n5cccn5)c4)ncnc32)[C@H](O)[C@@H]1O
0.1 to 1 | NS(=O)(=O)OC[C@H]1O[C@@H](n2cnc3c(C#Cc4ccccc4C(F)(F)F)ncnc32)[C@H](O)[C@@H]1O
0.1 to 1 | NS(=O)(=O)OC[C@H]1O[C@@H](n2cnc3c(-c4cccc(C(F)(F)F)c4)ncnc32)[C@H](O)[C@@H]1O
0.1 to 1 | NS(=O)(=O)OC[C@H]1O[C@@H](n2cnc3c(C4CC4)ncnc32)[C@H](O)[C@@H]1O
0.1 to 1 | NS(=O)(=O)OC[C@H]1O[C@@H](n2cnc3c(CNC(=O)c4cc(F)cc(F)c4)ncnc32)[C@H](O)[C@@H]1O
0.1 to 1 | CC(=O)NCc1ccccc1CNc1ncnc2c1ncn2[C@@H]1O[C@H](COS(N)(=O)=O)[C@@H](O)[C@H]1O
≤ 1 | CCc1cn([C@H]2C[C@H](O)[C@@H](COS(N)(=O)=O)O2)c2ncnc(CCc3ccccc3)c12
0.1 to 1 | NS(=O)(=O)OC[C@H]1O[C@@H](n2cnc3c(C#Cc4cccc(Cl)c4)ncnc32)[C@H](O)[C@@H]1O
0.1 to 1 | Cc1ncnc2c1ncn2[C@@H]1O[C@H](COS(N)(=O)=O)[C@@H](O)[C@H]1O
0.1 to 1 | NS(=O)(=O)OC[C@H]1O[C@@H](n2ccc3cncnc32)C[C@@H]1O
0.1 to 1 | NS(=O)(=O)OC[C@H]1O[C@@H](n2cnc3c(NCc4ccc(F)cc4)ncnc32)[C@H](O)[C@@H]1O
0.1 to 1 | NS(=O)(=O)OC[C@H]1O[C@@H](n2cnc3c(NC(=O)c4ccc(Cl)cc4)ncnc32)[C@H](O)[C@@H]1O
0.1 to 1 | NS(=O)(=O)OC[C@H]1O[C@@H](n2cnc3c(C#Cc4ccc(F)cc4F)ncnc32)[C@H](O)[C@@H]1O
0.1 to 1 | NS(=O)(=O)OC[C@H]1C[C@@H](n2cnc3c(C#Cc4ccccc4)ncnc32)C[C@@H]1O
0.1 to 1 | NS(=O)(=O)OC[C@H]1O[C@@H](n2cnc3c(CCc4ccccc4)ncnc32)[C@H](O)[C@@H]1O
0.1 to 1 | NS(=O)(=O)OC[C@H]1O[C@@H](n2cnc3c(NCCN4CCCC4)ncnc32)[C@H](O)[C@@H]1O
≤ 1 | CC(C)Cc1ncnc2c1ncn2[C@@H]1C[C@H](COS(N)(=O)=O)[C@@H](O)[C@H]1O
0.1 to 1 | NS(=O)(=O)OC[C@H]1O[C@@H](n2cnc3c(CNC(=O)c4cccnc4)ncnc32)[C@H](O)[C@@H]1O
0.1 to 1 | NS(=O)(=O)NC[C@H]1O[C@@H](n2cnc3c(C#Cc4ccccc4)ncnc32)[C@H](O)[C@@H]1O
≤ 1 | CC(C)Cc1ncnc2c1ncn2[C@@H]1O[C@H](COS(N)(=O)=O)[C@@H](O)[C@H]1O
0.1 to 1 | NS(=O)(=O)NC[C@H]1C[C@@H](n2cnc3c(N[C@H]4CCc5ccccc54)ncnc32)[C@H](O)[C@@H]1O
0.1 to 1 | NS(=O)(=O)OC[C@H]1O[C@@H](n2cnc3c(C#Cc4ccccc4Br)ncnc32)[C@H](O)[C@@H]1O
0.1 to 1 | CO[C@@H]1[C@H](O)[C@@H](COS(N)(=O)=O)O[C@H]1n1cnc2c(N[C@H]3CCc4ccccc43)ncnc21
0.1 to 1 | NS(=O)(=O)OC[C@H]1O[C@@H](n2cnc3c(NC(=O)c4ccc(Br)cc4)ncnc32)[C@H](O)[C@@H]1O
0.1 to 1 | NS(=O)(=O)OC[C@H]1O[C@@H](n2cnc3c(/C=C/c4ccccc4)ncnc32)[C@H](O)[C@@H]1O
0.1 to 1 | COc1ccccc1C(=O)Nc1ncnc2c1ncn2[C@@H]1O[C@H](COS(N)(=O)=O)[C@@H](O)[C@H]1O
≤ 1 | COc1ncnc2c1ccn2[C@H]1C[C@H](O)[C@@H](COS(N)(=O)=O)O1
≤ 1 | NS(=O)(=O)OC[C@H]1O[C@@H](n2ccc3c(NCc4ccccc4)nccc32)C[C@@H]1O
